Results taken from patent publication US4401667A, “Cephalosporins” (Karl Thomae Gesellschaft mit beschrankter Haftung, priority 1980, dated 1983).
Values after ≈ are worked out from the molar mass of the structure shown. Like-named read-outs stand apart in the source and are kept apart here.

How the values were obtained:
[1] = system: E. coli R+TEM (β-lactamase carrier); experiment: serial dilution test in the microtiter system (MIC); type: cell-based; settings: Escherichia coli
Method: (§1) The tests were performed using the serial dilution test in the microtiter system. […] The nutrient medium consisted of 10 gm of peptone, 8 gm of meat extract oxoid, 3 gm of sodium chloride, and 2 gm of sec. sodium phosphate diluted with distilled water to 100 ml (pH 7.2-7.4). The age of the primary cultures was approximately 20 hours. The standardization of the bacteria suspension was effected using a photometer according to the method of Eppendorf (test tube .phi. 14 mm, filter 546 nm), using for comparison a barium sulfate suspension formed by the addition of 3.0 ml of 1% barium chloride solution to 97 ml of 1% sulfuric acid. After standardization, the test microorganisms were further diluted to a concentration of 1:1500, using a sodium chloride solution.
(§2) 16 mgm of the particular test compound were put into a 10 ml measuring flask, and the flask was subsequently filled to the mark with the solvent. The further dilution series was standardized with distilled water or the appropriate solvent.
(§3) The depressions of the microtiter plates were filled with 0.2 ml of nutrient medium. 0.01 ml of the appropriate test compound solution was then added, followed by inoculation with 0.01 ml (1 drop) of the standardized bacteria suspension. The bacteria were incubated at 37° C. for 18 to 20 hours. Control tests using only the solvent were carried out simultaneously.
(§4) The readings were made macroscopically to determine the minimum inhibitory concentration (the lowest still bacteriostatically effective concentration).
(§5) The following test organisms were used:
(§6) Staphylococcus aureus SG 511, Escherichia coli ATCC 11 775, Pseudomonas aeruginosa hamburgensis and Pseudomonas aeruginosa BC 19, Serratia marcescens ATCC 13 880, Klebsiella pneumoniae ATCC 10 031 and BC 6, Proteus mirabilis BC 17, Proteus rettgeri BC 7, Enterobacter Cloaceae ATCC 13047 and E. coli R+TEM (β-lactamase carrier).

[2] = system: Enterobacter Cloaceae ATCC 13047; experiment: as above; type: cell-based; settings: Ent. cloacae ATCC 13047; 37° C., 18 to 20 hours
Method: as §1, §2, §3, §4, §5, §6

[3] = system: Escherichia coli ATCC 11 775; experiment: as above; type: cell-based; settings: E. coli ATCC 11775, 37° C., 18 to 20 hours
Method: as §1, §2, §3, §4, §5, §6

[4] = system: Klebsiella pneumoniae ATCC 10 031; experiment: as above; type: cell-based; settings: Kl. pneum. ATCC 10031, 37° C., 18 to 20 hours
Method: as §1, §2, §3, §4, §5, §6

[5] = system: Klebsiella pneumoniae BC 6; experiment: as above; type: cell-based
Method: as §1, §2, §3, §4, §5, §6

Proteus mirabilis BC 17 = experiment: as above; type: cell-based; settings: BC17, Prot. mirab. BC 17, 37° C., 18 to 20 hours
Method: as §1, §2, §3, §4, §5, §6

Proteus rettgeri BC 7 = experiment: as above; type: cell-based; settings: Providencia rettgeri, BC7; Prot. rettg.; 37° C., 18 to 20 hours
Method: as §1, §2, §3, §4, §5, §6

[6] = system: Serratia marcescens ATCC 13 880; experiment: as above; type: cell-based; settings: Serr. marcesc. ATCC 13880, 37° C., 18 to 20 hours
Method: as §1, §2, §3, §4, §5, §6

[7] = system: Staphylococcus aureus SG 511; experiment: as above; type: cell-based; settings: SG511, Staph. aureus SG 511, 37° C., 18 to 20 hours
Method: as §1, §2, §3, §4, §5, §6

E. coli ATCC 11 775 = experiment: experimental E. coli infection in mice; type: in vivo, mice (female, NMRI strain); settings: Escherichia coli, ATCC11, sc, 168 h, s.c. administration, once 1 hour after intraperitoneal infection, observation 7 days, read-out: ED50 (dose at which 50% of the animals survive)
Method: Test compounds A-D of the invention and cefuroxim were tested in vivo against experimental infections in mice. E.coli ATCC 11 775 was used as the pathogenic bacteria. An intraperitoneal infection was induced with 0.2 ml of a 5% mucin suspension of the bacteria. This corresponds to approximately 1.4×10^6 E. coli bacteria per mouse. […] The treatment was applied once (1 hour after infection). The observation period was 7 days.

[8] = system: Pseudomonas aeruginosa BC 19; experiment: serial dilution test in the microtiter system (MIC); type: cell-based
Method: as §1, §2, §3, §4, §5, §6

[9] = system: Pseudomonas aeruginosa hamburgensis; experiment: as above; type: cell-based
Method: as §1, §2, §3, §4, §5, §6

[10] = BC6, Kl. pneum. BC 6, 37° C., 18 to 20 hours, read-out: MIC
[11] = Pseud. Hbg., 37° C., 18 to 20 hours, read-out: MIC
[12] = BC19, Pseud. BC 19, 37° C., 18 to 20 hours, read-out: MIC

Row | SMILES | MIC [1] [µg/mL] | MIC [2] [µg/mL] | MIC [3] [µg/mL] | MIC [4] [µg/mL] | MIC ([5]; BC6) [µg/mL] | MIC (Proteus mirabilis BC 17) [µg/mL] | MIC (Proteus rettgeri BC 7) [µg/mL] | MIC [6] [µg/mL] | MIC [7] [µg/mL] | ED50 (E. coli ATCC 11 775) [mg/kg] | MIC [5, 10] [µg/mL] | MIC ([8]; BC19) [µg/mL] | MIC [9, 11] [µg/mL] | MIC [8, 12] [µg/mL] | MIC [9] [µg/mL]
1 | CO/N=C(\C(=O)N[C@@H]1C(=O)N2C(C(=O)O)=C(COC(N)=O)CS[C@H]12)c1ccco1 [Cefuroxim, cefuroxim, reference compound] | 4 (≈ 9.43 µM) | 32 (≈ 75.4 µM) | 8 (≈ 18.9 µM) | 2 (≈ 4.71 µM) | 4 (≈ 9.43 µM) | 0.5 (≈ 1.18 µM) | 2 (≈ 4.71 µM) | 8 (≈ 18.9 µM) | 1 (≈ 2.36 µM) | > 100 | – | – | – | – | –
2 | NS(=O)(=O)c1ccc(CNc2ncc(NC(=O)N[C@@H](C(=O)N[C@@H]3C(=O)N4C(C(=O)O)=C(CSc5nnnn5CCO)CS[C@H]34)c3ccc(O)cc3)c(O)n2)s1 [B] | 4 (≈ 4.79 µM) | 0.25 (≈ 0.299 µM) | 0.06 (≈ 0.0719 µM) | 0.12 (≈ 0.144 µM) | – | 0.12 (≈ 0.144 µM) | 0.25 (≈ 0.299 µM) | 0.25 (≈ 0.299 µM) | 1 (≈ 1.2 µM) | 0.4 | 0.25 (≈ 0.299 µM) | 2 (≈ 2.4 µM) | 4 (≈ 4.79 µM) | – | –
3 | CS(=O)(=O)CCn1nnnc1SCC1=C(C(=O)O)N2C(=O)[C@@H](NC(=O)[C@H](NC(=O)Nc3cnc(NCc4ccco4)nc3O)c3ccc(O)cc3)[C@H]2SC1 [D, Sodium 7β-{D-α-[3-(2-(2'-furylmethylamino)-4-hydroxy-5-pyrimidinyl)-ureido]-p-hydroxyphenylacetamido}-3-{[1-(2'-methylsulfonylethyl)tetrazol-5-yl]-thiomethyl}-ceph-3-em-4-carboxylate] | 8 | 0.5 | 0.25 | 0.25 | – | 0.25 | 1 | 0.5 | 0.5 | 1 to 2 | 0.5 | – | 8 | 8 | –
4 | O=C(Nc1cnc(NCc2cccnc2)nc1O)N[C@@H](C(=O)N[C@@H]1C(=O)N2C(C(=O)O)=C(CSc3nnnn3CCO)CS[C@H]12)c1ccc(O)cc1 [A, Sodium 7β-{D-α-[3-(4-hydroxy-2-(3'-pyridylmethylamino)-5-pyrimidinyl)-ureido]-p-hydroxyphenylacetamido}-3-{[1-(2'-hydroxyethyl)-tetrazol-5-yl]-thiomethyl}-ceph-3-em-4-carboxylate] | 8 | 0.5 | 0.12 | 0.25 | – | 0.12 | 0.5 | 0.25 | 1 | 0.9 | 0.5 | 4 | – | – | 8
5 | NC(=O)CCn1nnnc1SCC1=C(C(=O)O)N2C(=O)[C@@H](NC(=O)[C@H](NC(=O)Nc3cnc(NCc4ccc(S(N)(=O)=O)s4)nc3O)c3ccc(O)cc3)[C@H]2SC1 [C, Sodium 7β-{D-α-[3-(2-(5'-aminosulfonyl-2'-thienylmethylamino)-4-hydroxy-5-pyrimidinyl)-ureido]-p-hydroxyphenylacetamido}-3-{[1-(2'-aminocarbonylethyl)-tetrazol-5-yl]-thiomethyl}ceph-3-em-4-carboxylate] | 4 | 0.25 | 0.12 | 0.25 | – | 0.25 | 0.5 | 0.5 | 1 | 0.7 | 0.25 | – | 4 | 4 | –
